Assay results reported in ChEMBL document CHEMBL1201862, “PubChem BioAssay data set” (2004).
Active and inactive are the calls of the source.

Tests used:
Cannabinoid receptor 2 [1] = target: T1, Cannabinoid receptor 2 (Homo sapiens, UniProt P34972); experiment: SAR analysis of antagonists of the Cannabinoid Receptor 2 using an Image-Based Assay - Set 2. [Related pubchem assays (depositor defined):AID1961, AID1965]; assay type: functional
[2] = target: T2, G-protein coupled receptor 55 (Homo sapiens, UniProt Q9Y2T6); experiment: SAR analysis of selective Agonists of GPR55 using an Image-Based Assay - Set 2. [Related pubchem assays (depositor defined):AID1961, AID1965]; assay type: functional
T2 sequence (Q9Y2T6 whole entry): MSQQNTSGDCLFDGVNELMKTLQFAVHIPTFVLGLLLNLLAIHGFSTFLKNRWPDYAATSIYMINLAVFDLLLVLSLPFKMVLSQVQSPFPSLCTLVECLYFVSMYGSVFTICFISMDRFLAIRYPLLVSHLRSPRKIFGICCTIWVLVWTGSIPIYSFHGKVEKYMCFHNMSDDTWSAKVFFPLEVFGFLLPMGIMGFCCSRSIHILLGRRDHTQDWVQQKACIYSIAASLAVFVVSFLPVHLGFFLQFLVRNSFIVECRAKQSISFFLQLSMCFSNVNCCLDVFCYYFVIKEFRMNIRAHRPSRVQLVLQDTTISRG

Cannabinoid receptor 2 [3] = target: T1, Cannabinoid receptor 2; experiment: SAR analysis of agonists of the Cannabinoid Receptor 2 using an Image-Based Assay - Set 2. [Related pubchem assays (depositor defined):AID1961, AID1965]; assay type: functional
[4] = target: T3, G-protein coupled receptor 35 (Homo sapiens, UniProt Q9HC97); experiment: SAR analysis of Agonists of the GPR35 Receptor using an Image-Based Assay - Set 3. [Related pubchem assays (depositor defined):AID1961, AID1965]; assay type: functional
T3 sequence (Q9HC97 whole entry): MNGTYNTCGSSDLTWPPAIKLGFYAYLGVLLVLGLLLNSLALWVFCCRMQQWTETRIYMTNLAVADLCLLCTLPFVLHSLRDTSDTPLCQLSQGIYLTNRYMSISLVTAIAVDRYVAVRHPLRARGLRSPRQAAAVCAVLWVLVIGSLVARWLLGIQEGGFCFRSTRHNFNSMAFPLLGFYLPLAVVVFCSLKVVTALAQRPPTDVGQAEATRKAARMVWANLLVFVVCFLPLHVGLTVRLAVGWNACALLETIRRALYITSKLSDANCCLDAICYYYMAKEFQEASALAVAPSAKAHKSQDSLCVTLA

Cannabinoid receptor 1 [5] = target: T4, Cannabinoid receptor 1 (Homo sapiens, UniProt P21554); experiment: SAR analysis of antagonists of the Cannabinoid Receptor 1 using an Image-Based Assay - Set 3. [Related pubchem assays (depositor defined):AID1961, AID1965]; assay type: functional
T4 sequence (P21554 whole entry): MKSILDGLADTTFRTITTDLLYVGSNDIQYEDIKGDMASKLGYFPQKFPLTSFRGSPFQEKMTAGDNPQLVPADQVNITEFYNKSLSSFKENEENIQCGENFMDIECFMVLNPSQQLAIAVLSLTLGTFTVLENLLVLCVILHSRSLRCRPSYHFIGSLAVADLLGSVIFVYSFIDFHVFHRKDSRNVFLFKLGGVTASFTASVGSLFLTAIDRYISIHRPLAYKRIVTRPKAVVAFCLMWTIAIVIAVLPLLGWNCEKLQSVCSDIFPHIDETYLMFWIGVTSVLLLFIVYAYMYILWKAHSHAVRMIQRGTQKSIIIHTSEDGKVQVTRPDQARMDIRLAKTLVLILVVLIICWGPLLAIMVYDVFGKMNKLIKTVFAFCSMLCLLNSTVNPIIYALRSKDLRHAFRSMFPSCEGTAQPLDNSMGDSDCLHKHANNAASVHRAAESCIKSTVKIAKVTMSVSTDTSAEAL

Cannabinoid receptor 1 [6] = target: T4, Cannabinoid receptor 1; experiment: SAR analysis of agonists of the Cannabinoid Receptor 1 using an Image-Based Assay - Set 3. [Related pubchem assays (depositor defined):AID1961, AID1965]; assay type: functional
[7] = target: T3, G-protein coupled receptor 35; experiment: SAR analysis of Antagonists of the GPR35 Receptor using an Image-Based Assay - Set 4. [Related pubchem assays (depositor defined):[…]]; assay type: functional
Hexokinase HKDC1 = target: T5, Hexokinase HKDC1 (Homo sapiens, UniProt Q2TB90); experiment: HKDC1 hexokinase inhibitors, dose response, biochemical, W721R variant (AID 504729); assay type: functional
T5 sequence (Q2TB90 whole entry): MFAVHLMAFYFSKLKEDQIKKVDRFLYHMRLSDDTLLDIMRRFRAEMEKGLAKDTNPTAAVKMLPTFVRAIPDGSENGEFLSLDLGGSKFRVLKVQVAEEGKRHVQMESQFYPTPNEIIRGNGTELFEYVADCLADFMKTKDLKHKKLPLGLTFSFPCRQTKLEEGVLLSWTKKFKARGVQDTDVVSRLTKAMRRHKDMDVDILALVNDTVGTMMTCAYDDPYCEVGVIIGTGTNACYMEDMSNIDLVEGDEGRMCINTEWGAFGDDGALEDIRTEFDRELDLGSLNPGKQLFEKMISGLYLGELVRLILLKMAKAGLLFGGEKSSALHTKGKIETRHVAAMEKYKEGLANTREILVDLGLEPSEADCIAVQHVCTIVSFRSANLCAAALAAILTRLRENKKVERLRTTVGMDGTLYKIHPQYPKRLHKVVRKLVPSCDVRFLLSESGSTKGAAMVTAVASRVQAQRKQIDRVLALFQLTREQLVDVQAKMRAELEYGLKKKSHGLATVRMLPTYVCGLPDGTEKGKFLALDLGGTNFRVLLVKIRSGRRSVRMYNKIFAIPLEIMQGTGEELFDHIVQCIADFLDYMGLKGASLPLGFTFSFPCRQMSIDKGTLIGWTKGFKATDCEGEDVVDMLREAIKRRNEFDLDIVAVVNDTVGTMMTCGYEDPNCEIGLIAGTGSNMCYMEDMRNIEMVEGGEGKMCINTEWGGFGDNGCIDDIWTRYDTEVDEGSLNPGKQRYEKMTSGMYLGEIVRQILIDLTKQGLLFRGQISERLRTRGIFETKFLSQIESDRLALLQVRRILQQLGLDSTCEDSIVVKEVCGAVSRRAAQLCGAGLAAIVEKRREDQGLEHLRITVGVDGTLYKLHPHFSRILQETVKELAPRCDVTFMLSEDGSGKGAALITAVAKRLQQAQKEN

[8] = inhibitors of intracellular T. cruzi replication, confirmation, NIH3T3 host cells, beta-gal luminescence (AID 2044); assay type: functional, cell-based;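 note: intracellular parasites grown in NIH/3T3 mouse fibroblasts as host cells; luminescent beta-galactosidase reporter signal from transgenic T. cruzi replicating inside host cells; inhibitors lower the luminescence signal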
[9] = cytotoxicity toward NIH3T3 fibroblasts, dose response, counter-screen, cell-based, ATP luminescence, mouse fibroblasts (AID 2010); assay type: functional;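 note: cells exposed to compound for about 90 hours before reading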
[10] = target: T2, G-protein coupled receptor 55; experiment: GPR55 agonists via beta-arrestin recruitment, primary screen, imaging, U2OS cells, beta-arrestin-GFP redistribution (AID 1961); assay type: functional
[11] = inhibitors of firefly luciferase expression or activity, dose response, H4 neuroglioma cells, luminescence (AID 1990); assay type: functional, cell-based
BJ [12] = experiment: cytotoxicity toward BJ-TERT fibroblasts, dose response, cell-based, RAS-independent, luminescence (AID 1933); assay type: functional; settings: Homo sapiens
[13] = Luminescence Cell-Based Dose Response HTS to Identify Inhibitors of 5'UTR Stem-Loop Driven Prion Protein mRNA Translation in H4 Neuroglioblastoma Cells. [Related pubchem assays: 1827 (Project Summary), 1813 (Primary HTS)]; assay type: functional
[14] = inhibitors of SNCA 5'UTR-driven reporter translation, confirmation, H4 neuroglioma cells, luminescence (AID 1988); assay type: functional, cell-based
BJ [15] = experiment: cells; assay type: functional, cell-based; settings: Homo sapiens
BJ [16] = experiment: cytotoxicity toward BJ-TERT-LT-ST fibroblasts, dose response, cell-based, RAS-independent, luminescence (AID 1935); assay type: functional; settings: Homo sapiens;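 note: BJ fibroblasts immortalized with TERT plus LT and ST oncogenes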
[17] = cytotoxicity toward DRD oncogenic fibroblasts, dose response, cell-based, non-viral oncogenic, luminescence (AID 1934); assay type: functional; settings: Homo sapiens
X-box-binding protein 1 = X-box-binding protein 1 (Homo sapiens, UniProt P17861); assay type: functional, Cricetulus griseus;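 note: confirmatory dose-response counter-screen serving a CHOP assay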
Sequence of X-box-binding protein 1 (P17861 whole entry): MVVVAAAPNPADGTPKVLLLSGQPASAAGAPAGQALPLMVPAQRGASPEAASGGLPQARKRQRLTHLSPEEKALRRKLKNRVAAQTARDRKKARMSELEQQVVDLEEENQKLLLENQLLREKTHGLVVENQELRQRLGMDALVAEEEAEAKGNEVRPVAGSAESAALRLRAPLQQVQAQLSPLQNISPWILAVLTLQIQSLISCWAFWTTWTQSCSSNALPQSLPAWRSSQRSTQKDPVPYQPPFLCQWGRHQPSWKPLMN

BJ [18] = experiment: cytotoxicity toward Ras-transformed BJeLR fibroblasts, dose response, cell-based, alamar blue fluorescence, cherrypicked samples (AID 2631); assay type: functional; settings: Homo sapiens;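 note: confirmatory dose-response assay in RAS-dependent BJ fibroblasts engineered with TERT, LT and ST, with cytotoxicity read by fluorescence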
[19] = target: T6, Short transient receptor potential channel 4 (Mus musculus, UniProt Q9QUQ5); experiment: mouse TRPC4 channel activators, dose response, cell-based, HEK293 TRPC4/mu-opioid, Fluo-4 calcium (AID 434937); assay type: functional
T6 sequence (Q9QUQ5 whole entry): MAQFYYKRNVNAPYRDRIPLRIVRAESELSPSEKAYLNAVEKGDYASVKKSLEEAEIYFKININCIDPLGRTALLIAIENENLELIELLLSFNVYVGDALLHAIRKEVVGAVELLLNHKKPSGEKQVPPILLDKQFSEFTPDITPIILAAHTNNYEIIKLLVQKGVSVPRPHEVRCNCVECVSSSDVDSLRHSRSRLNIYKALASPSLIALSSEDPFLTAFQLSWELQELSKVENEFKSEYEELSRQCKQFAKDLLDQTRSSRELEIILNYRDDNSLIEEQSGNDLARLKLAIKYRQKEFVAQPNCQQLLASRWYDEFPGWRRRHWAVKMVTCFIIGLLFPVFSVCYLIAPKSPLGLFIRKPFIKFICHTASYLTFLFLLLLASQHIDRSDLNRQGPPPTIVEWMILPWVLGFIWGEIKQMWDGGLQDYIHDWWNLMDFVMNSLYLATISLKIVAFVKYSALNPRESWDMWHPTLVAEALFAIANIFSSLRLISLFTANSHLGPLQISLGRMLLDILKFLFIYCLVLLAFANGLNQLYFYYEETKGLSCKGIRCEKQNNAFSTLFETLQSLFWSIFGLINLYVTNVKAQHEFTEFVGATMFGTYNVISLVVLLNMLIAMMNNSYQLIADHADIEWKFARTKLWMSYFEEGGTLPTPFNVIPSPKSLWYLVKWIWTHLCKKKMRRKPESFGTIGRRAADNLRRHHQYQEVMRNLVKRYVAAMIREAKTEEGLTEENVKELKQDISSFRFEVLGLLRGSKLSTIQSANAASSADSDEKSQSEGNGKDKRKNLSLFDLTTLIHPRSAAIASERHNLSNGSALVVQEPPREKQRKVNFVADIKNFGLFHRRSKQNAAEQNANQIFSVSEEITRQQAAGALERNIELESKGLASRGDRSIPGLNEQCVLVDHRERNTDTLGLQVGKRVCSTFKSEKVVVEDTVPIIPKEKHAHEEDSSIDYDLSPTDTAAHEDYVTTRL

T1 sequence (P34972 whole entry): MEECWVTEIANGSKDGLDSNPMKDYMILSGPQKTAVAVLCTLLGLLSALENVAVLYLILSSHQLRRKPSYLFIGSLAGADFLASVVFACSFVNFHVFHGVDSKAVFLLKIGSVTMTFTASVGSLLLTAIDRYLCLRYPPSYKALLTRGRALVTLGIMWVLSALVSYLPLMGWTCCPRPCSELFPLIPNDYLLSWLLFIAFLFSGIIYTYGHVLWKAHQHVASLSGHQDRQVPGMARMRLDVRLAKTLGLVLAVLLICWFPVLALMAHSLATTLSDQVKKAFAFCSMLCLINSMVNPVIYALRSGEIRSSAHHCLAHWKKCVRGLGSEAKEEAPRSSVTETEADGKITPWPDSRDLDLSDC

CN(C)S(=O)(=O)c1ccc(Cl)c(C(=O)N2CCN(c3ccc([N+](=O)[O-])cc3)CC2)c1
IC50 (Cannabinoid receptor 2 [1]): > 32 µM (inactive) | EC50 [2]: 6.98 µM (active) | EC50 (Cannabinoid receptor 2 [3]): > 32 µM (inactive) | EC50 [4]: > 32 µM (inactive) | IC50 (Cannabinoid receptor 1 [5]): > 32 µM (inactive) | EC50 (Cannabinoid receptor 1 [6]): > 32 µM (inactive) | IC50 [7]: > 32 µM (inactive)

COP(=O)(OC)c1ccc(NCc2cc(O)ccc2O)cc1
IC50 (Hexokinase HKDC1): 9.51 µM (active)

CC(C)Oc1ccc(S(=O)(=O)N2CCOCC2)cc1NC(=O)c1cc2c(s1)CCCCC2
IC50 (Cannabinoid receptor 2 [1]): > 32 µM (inactive) | EC50 [2]: > 32 µM (inactive) | EC50 (Cannabinoid receptor 2 [3]): > 32 µM (inactive) | EC50 [4]: > 32 µM (inactive) | IC50 (Cannabinoid receptor 1 [5]): 27.5 µM (inactive) | EC50 (Cannabinoid receptor 1 [6]): > 32 µM (inactive) | IC50 [7]: > 32 µM (inactive)

Cn1c(SCC(=O)N2c3ccccc3Sc3ccccc32)nc2ccccc21
EC50 [8]: 2.77 µM (active) | EC50 [9]: > 30 µM (not active) | EC50 [10]: 1.29 µM (active)

Cc1ccc(-c2nn(CC(=O)NCc3cc(-c4nn(C)c(=O)c5ccccc45)ccc3C)c(=O)c3ccccc23)cc1
EC50 [11]: 8.15 µM (active) | EC50 (BJ [12]): 4.25 µM (active) | EC50 [13]: 6.28 µM (active) | EC50 [14]: 6.81 µM (active) | EC50 (BJ [15]): 8.99 µM (active) | EC50 (BJ [16]): 5.6 µM (inconclusive) | EC50 [17]: 6.29 µM (inconclusive) | Absolute IC50 (XBP1) (X-box-binding protein 1): 10 µM | EC50 (BJ [18]): > 133 µM (inactive)

O=C(NC1CCCN(Cc2ccc(Cl)cc2)C1)C1CCC1 (stereo not drawn)
EC50 [19]: 1.33 µM (active)
